Data reported in patent publication US20250127887A1 (priority 2021, published 2025).
Square brackets hold non-standard residues; d marks the D form. Ends that are not written are not given here. * marks the point of attachment. Azp = azidopentanoic acid, [N-]=[N+]=NCCCCC(=O)*; Cit = NC(=O)NCCC[C@H](N)C(=O)O

How the values were obtained:
[1] = format: physicochemical; details: pH 7.4
[2] = system: antigen specific CD4 T cells expressing FOXP3; assay: Proportion of T cells expressing Tbet or Foxp3; Treg induction by tolerance vaccines with inhibitors and immunostimulants; format: cell-based
OT-II cells = assay: In vitro induction of regulatory T cells by tolerance vaccine formulations in co-culture of CD11c+ APCs and OT-II cells, flow cytometry; format: cell-based; details: 500 nM peptide antigen conjugate, three days
T cells = assay: In vitro T cell recognition of modified E7 and Reps1 peptide antigen fragments; format: cell-based; details: E7 (RAHYNIVTF) and Reps1 (AQLANDVVL) fragments modified at N- or C-terminus; FIGS. 28A and B
Source text: To study the impact of the solubilizing block and extensions on peptide antigen recognition by T cells in vitro, two model antigens, E7 ([…]) and Reps1 ([…]), modified at the N-terminal and/or C-terminal positions were produced by solid-phase peptide synthesis (Tables 25 and 26), and then screened in vitro for T cell recognition (FIG. 28).

[3] = pH-responsiveness of carboxylic acid amphiphiles by turbidity (OD at 490 nm); format: physicochemical; details: 0.1 mM in 1×PBS at pH 7.4, 7.0 or 6.5
[4] = Torin-1 combined with TLR-7/8a 2BXy, peptide antigen conjugate 500 nM

Compound: KKKKKKK-SGSGSGSGSGSGSGSGSGSGSGSG-(Lys(N3-DBCO))-Ahx-(F′)5 [Compound 91]
- Size (diameter, nm) [1]: 477 nm

Compound: CCC(=O)N1CCN(c2ccc(-n3c(=O)ccc4cnc5ccc(-c6cnc7ccccc7c6)cc5c43)cc2C(F)(F)F)CC1 [Torin-1, Torin 1]
- Magnitude of Tregs induced by tolerance vaccines ([2]; Torin-1 combined with TLR-7/8a 2BXy, versus other immunostimulants): highest magnitude Treg responses
- Magnitude of Treg responses, fold higher than Torin-1 alone [2, 4]: 2 fold
- Magnitude of Treg responses, fold higher than the vaccine without Torin-1 [2, 4]: 8 fold
- Proportion of antigen specific CD4 T cells expressing FOXP3 ([2]; compared with SR1555, rapamycin and ITE, peptide antigen conjugate 500 nM): higher proportion of antigen specific CD4 T cells expressing FOXP3
- proportion of Tregs (Treg/Tbet) relative to formulations with rapamycin (OT-II cells): 2-4 fold
- number and proportion of Tregs induced (OT-II cells; vaccines with inhibitor vs without inhibitors, FIGS. 25 and 26): significantly higher

Compound: 364: "modification of the N-terminus of peptide antigen fragments (e.g., Compounds, 343 and 364) negatively impacts potency" (Azp-V[Cit]AQLANDVVL-NH2; SMILES CC(C)C[C@H](NC(=O)[C@@H](NC(=O)[C@@H](NC(=O)[C@H](CC(=O)O)NC(=O)[C@H](CC(N)=O)NC(=O)[C@H](C)NC(=O)[C@H](CC(C)C)NC(=O)[C@H](CCC(N)=O)NC(=O)[C@H](C)NC(=O)[C@H](CCCNC(N)=O)NC(=O)[C@@H](NC(=O)CCCCN=[N+]=[N-])C(C)C)C(C)C)C(C)C)C(N)=O) [Compound 364]
- potency for T cell recognition (T cells): negatively impacts potency

Compound: 343: "modification of the N-terminus of peptide antigen fragments (e.g., Compounds, 343 and 364) negatively impacts potency" (Azp-V[Cit]RAHYNIVTFS-NH2; SMILES CC[C@H](C)[C@H](NC(=O)[C@H](CC(N)=O)NC(=O)[C@H](Cc1ccc(O)cc1)NC(=O)[C@H](Cc1c[nH]cn1)NC(=O)[C@H](C)NC(=O)[C@H](CCCNC(=N)N)NC(=O)[C@H](CCCNC(N)=O)NC(=O)[C@@H](NC(=O)CCCCN=[N+]=[N-])C(C)C)C(=O)N[C@H](C(=O)N[C@H](C(=O)N[C@@H](Cc1ccccc1)C(=O)N[C@@H](CO)C(N)=O)[C@@H](C)O)C(C)C) [Compound 343]
- potency for T cell recognition (T cells): negatively impacts potency

Compound: 341: "modification of the C-terminus of peptide antigen fragments (e.g., Compounds 341 and 362) is more well tolerated" (RAHYNIVTFSV[Cit][Azidolysine]-NH2) [Compound 341]
- potency for T cell recognition (T cells): more well tolerated

Compound: {Succinic acid}4K2K{Lys(N3-DBCO)}-Ahx-2B3W2 [Compound 274]
- pH-responsiveness: aggregation / particle size stability by turbidity (OD at 490 nm) [3]: stable particle sizes down to at least pH 7.0
